The values that follow come from US8129417B2, “Substituted octahydrocyclopenta[C]pyrrol-4-amines as calcium channel blockers” (Abbott Laboratories, priority 2008, dated 2012).

SMILES strings stand for the structures.

The target in the assay is human Cav2.2 (Homo sapiens, UniProt Q00975). Briefly: Assessment of calcium channel activity using FLIPR (Ca2+ influx in IMR32 cells). It is filed as cell-based. As to conditions: 60 minute pre-incubation with compound, 2 μM nifedipine, depolarized with 80 mM KCl. The gist of the method: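 IC50 came from sigmoidal non-linear regression of percent inhibition, relative to uninhibited activity, across compound concentrations. Calcium influx was measured by FLIPR in IMR32 cells plated at 1-1.2×10^5 cells/well and cultured 48 h at 37 °C.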
Sequence of human Cav2.2 (Q00975 whole entry): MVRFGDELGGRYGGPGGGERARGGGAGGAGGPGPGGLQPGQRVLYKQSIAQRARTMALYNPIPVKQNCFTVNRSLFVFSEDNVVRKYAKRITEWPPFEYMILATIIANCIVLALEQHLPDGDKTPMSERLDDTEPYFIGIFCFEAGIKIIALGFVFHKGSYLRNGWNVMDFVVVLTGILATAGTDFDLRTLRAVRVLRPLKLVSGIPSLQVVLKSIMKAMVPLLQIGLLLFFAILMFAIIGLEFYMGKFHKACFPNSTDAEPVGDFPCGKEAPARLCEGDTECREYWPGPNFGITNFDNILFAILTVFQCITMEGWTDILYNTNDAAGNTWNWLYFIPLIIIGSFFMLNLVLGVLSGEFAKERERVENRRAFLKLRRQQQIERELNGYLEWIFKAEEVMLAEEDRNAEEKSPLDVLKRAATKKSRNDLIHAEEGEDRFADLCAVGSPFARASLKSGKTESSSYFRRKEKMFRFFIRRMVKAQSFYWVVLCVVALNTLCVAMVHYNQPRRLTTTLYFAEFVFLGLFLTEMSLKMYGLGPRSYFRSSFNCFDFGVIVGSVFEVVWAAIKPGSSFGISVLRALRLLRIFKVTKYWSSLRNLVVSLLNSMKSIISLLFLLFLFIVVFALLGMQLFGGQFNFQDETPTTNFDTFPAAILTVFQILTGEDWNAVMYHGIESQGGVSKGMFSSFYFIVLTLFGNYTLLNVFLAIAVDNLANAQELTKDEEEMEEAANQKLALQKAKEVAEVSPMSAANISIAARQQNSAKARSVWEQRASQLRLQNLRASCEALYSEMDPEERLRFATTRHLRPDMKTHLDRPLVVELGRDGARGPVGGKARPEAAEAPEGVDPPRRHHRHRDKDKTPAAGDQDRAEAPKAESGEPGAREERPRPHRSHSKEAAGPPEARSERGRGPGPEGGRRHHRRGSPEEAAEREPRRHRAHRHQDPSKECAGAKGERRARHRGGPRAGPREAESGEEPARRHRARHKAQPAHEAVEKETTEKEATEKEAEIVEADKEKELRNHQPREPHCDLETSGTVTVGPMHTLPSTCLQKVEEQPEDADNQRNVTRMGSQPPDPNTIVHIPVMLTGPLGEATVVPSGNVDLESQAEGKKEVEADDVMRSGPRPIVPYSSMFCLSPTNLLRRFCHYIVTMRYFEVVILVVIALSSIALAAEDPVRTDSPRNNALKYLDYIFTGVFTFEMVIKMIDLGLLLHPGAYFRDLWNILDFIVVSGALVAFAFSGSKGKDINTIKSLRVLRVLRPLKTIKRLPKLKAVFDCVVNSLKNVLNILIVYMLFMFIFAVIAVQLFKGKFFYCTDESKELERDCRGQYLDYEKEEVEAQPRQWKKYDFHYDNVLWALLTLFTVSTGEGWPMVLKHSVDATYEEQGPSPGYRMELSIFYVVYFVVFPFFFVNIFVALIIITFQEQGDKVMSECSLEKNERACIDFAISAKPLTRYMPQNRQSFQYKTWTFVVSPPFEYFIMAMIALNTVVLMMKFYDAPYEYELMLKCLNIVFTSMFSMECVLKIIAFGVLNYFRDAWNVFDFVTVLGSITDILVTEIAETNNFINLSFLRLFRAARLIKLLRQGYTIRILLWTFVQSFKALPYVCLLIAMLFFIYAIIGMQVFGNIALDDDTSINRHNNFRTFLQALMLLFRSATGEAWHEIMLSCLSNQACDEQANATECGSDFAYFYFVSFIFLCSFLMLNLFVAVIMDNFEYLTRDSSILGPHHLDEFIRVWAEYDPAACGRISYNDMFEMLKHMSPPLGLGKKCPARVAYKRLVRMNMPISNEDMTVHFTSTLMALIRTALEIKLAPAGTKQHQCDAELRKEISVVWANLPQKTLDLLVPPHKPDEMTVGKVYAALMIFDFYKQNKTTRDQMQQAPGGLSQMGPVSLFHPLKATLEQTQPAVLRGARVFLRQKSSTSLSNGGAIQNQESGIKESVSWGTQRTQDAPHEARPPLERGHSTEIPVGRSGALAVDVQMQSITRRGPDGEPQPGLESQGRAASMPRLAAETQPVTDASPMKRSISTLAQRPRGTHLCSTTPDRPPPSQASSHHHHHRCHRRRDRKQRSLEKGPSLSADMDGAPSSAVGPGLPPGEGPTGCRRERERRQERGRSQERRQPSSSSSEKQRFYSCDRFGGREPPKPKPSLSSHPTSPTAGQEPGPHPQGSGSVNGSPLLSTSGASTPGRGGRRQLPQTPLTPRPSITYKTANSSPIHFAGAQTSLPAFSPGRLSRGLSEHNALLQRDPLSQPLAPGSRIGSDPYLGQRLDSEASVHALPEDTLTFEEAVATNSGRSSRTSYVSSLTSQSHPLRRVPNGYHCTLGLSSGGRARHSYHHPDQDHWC
Sequence of human Cav2.2 (P54289 25-946 partner limits assumed): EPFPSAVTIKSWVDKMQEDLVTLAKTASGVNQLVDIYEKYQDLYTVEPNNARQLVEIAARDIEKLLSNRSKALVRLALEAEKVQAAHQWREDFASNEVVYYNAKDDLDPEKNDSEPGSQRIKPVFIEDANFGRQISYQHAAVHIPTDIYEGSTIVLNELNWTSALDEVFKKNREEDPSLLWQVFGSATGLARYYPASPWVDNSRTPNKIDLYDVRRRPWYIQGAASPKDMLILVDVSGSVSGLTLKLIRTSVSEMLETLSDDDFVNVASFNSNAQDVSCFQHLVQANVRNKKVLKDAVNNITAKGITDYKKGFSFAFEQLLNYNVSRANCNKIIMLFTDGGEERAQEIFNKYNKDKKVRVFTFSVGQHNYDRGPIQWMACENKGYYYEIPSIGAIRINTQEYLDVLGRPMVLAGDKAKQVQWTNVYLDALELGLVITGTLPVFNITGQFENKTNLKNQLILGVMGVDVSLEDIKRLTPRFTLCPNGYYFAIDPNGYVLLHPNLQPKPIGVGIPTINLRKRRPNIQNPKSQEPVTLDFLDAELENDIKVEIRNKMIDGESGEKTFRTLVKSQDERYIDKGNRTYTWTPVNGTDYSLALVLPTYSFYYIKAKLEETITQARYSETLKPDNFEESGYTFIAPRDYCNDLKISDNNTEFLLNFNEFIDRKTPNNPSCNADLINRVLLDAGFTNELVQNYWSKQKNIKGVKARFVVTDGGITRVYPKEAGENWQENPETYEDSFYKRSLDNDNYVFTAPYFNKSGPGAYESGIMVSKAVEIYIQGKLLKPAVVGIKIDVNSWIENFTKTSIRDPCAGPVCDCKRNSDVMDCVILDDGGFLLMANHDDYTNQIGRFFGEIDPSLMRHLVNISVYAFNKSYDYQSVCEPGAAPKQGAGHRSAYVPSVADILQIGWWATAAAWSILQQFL
Sequence of human Cav2.2 (P54289 947-1103 partner limits assumed): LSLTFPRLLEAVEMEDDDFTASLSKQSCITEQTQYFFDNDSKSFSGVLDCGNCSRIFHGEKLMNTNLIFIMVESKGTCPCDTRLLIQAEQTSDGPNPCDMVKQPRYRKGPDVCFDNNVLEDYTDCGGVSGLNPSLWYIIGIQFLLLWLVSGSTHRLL
Sequence of human Cav2.2 (P54284 whole entry partner): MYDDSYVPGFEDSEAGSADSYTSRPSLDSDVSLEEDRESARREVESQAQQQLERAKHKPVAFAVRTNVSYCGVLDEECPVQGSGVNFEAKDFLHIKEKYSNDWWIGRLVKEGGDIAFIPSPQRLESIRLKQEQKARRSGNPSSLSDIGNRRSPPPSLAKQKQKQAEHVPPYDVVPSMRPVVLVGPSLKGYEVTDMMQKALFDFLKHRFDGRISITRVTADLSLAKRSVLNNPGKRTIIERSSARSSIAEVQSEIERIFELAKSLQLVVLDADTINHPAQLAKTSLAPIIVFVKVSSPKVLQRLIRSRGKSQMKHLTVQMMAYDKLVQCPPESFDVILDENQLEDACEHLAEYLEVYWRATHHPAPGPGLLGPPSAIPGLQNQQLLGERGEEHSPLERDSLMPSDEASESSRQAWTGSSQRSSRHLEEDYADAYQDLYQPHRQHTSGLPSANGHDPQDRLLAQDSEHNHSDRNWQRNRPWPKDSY
For `CC(C)(C)[C@H](N)C(=O)N[C@H]1CC[C@@H]2CN(S(=O)(=O)c3ccc(C(F)(F)F)cc3)C[C@@H]21` [Example 408, 3-methyl-N^1-((3aR,4S,6aS)-2-{[4-(trifluoromethyl)phenyl]sulfonyl}octahydrocyclopenta[c]pyrrol-4-yl)-L-valinamide], the IC50 (usually the point on the concentration scale where inhibition reaches its midpoint) was 5.11 µM. Under `CC(C)(C)[C@H](N)C(=O)N[C@@H]1CC[C@H]2CN(S(=O)(=O)c3ccc(C(F)(F)F)cc3)C[C@H]21` [Example 409, 3-methyl-N^1-((3aS,4R,6aR)-2-{[4-(trifluoromethyl)phenyl]sulfonyl}octahydrocyclopenta[c]pyrrol-4-yl)-L-valinamide] stands 5.02 µM; under `CC[C@H](C)[C@H](NC)C(=O)N[C@H]1CC[C@@H]2CN(S(=O)(=O)c3cccc(C(F)(F)F)c3)C[C@@H]21` [Example 410, N^2-methyl-N^1-((3aR,4S,6aS)-2-{[3-(trifluoromethyl)phenyl]sulfonyl}octahydrocyclopenta[c]pyrrol-4-yl)-L-isoleucinamide], 1.8 µM. Regarding `CC[C@H](C)[C@H](NC)C(=O)N[C@H]1CC[C@@H]2CN(S(=O)(=O)c3ccc(C(F)(F)F)cc3)C[C@@H]21` [Example 411, N^2-methyl-N^1-((3aR,4S,6aS)-2-{[4-(trifluoromethyl)phenyl]sulfonyl}octahydrocyclopenta[c]pyrrol-4-yl)-L-isoleucinamide], the IC50 was 4.22 µM. Under `CN[C@@H](CC(C)(C)C)C(=O)N[C@H]1CC[C@@H]2CN(S(=O)(=O)c3cccc(C(F)(F)F)c3)C[C@@H]21` [Example 414, N^2,4-dimethyl-N^1-((3aR,4S,6aS)-2-{[3-(trifluoromethyl)phenyl]sulfonyl}octahydrocyclopenta[c]pyrrol-4-yl)-L-leucinamide] stands 0.9 µM; under `CN[C@@H](CC(C)(C)C)C(=O)N[C@@H]1CC[C@H]2CN(S(=O)(=O)c3cccc(C(F)(F)F)c3)C[C@H]21` [Example 416, N^2,4-dimethyl-N^1-((3aS,4R,6aR)-2-{[3-(trifluoromethyl)phenyl]sulfonyl}octahydrocyclopenta[c]pyrrol-4-yl)-L-leucinamide], 1.33 µM.

Consider `CN[C@@H](CC(C)(C)C)C(=O)N[C@@H]1CC[C@H]2CN(S(=O)(=O)c3ccc(C(F)(F)F)cc3)C[C@H]21` [Example 417, N^2,4-dimethyl-N^1-((3aS,4R,6aR)-2-{[4-(trifluoromethyl)phenyl]sulfonyl}octahydrocyclopenta[c]pyrrol-4-yl)-L-leucinamide], for which the IC50 is 1.16 µM. In the case of `CCCC[C@H](NC)C(=O)N[C@H]1CC[C@@H]2CN(S(=O)(=O)c3ccc(C(F)(F)F)cc3)C[C@@H]21` [Example 418, N^2-methyl-N^1-((3aR,4S,6aS)-2-{[4-(trifluoromethyl)phenyl]sulfonyl}octahydrocyclopenta[c]pyrrol-4-yl)-L-norleucinamide] it was 0.82 µM; in that of `CC(C)(C)C[C@H](N)C(=O)N[C@H]1CC[C@@H]2CN(S(=O)(=O)c3ccc(C(F)(F)F)cc3)C[C@@H]21` [Example 419, 4-methyl-N^1-((3aR,4S,6aS)-2-{[4-(trifluoromethyl)phenyl]sulfonyl}octahydrocyclopenta[c]pyrrol-4-yl)-L-leucinamide], 0.8 µM; in that of `CCC[C@H](NC)C(=O)N[C@@H]1CC[C@@H]2CN(S(=O)(=O)c3ccc(C(F)(F)F)cc3)C[C@@H]21` [Example 420, N^2-methyl-N^1-((3aR,4R,6aS)-2-{[4-(trifluoromethyl)phenyl]sulfonyl}octahydrocyclopenta[c]pyrrol-4-yl)-L-norvalinamide], 5.7 µM.

For the compound `CN[C@@H](CC(C)C)C(=O)N[C@@H]1CC[C@@H]2CN(S(=O)(=O)c3ccc(C(F)(F)F)cc3)C[C@@H]21` [Example 421, N^2-methyl-N^1-((3aR,4R,6aS)-2-{[4-(trifluoromethyl)phenyl]sulfonyl}octahydrocyclopenta[c]pyrrol-4-yl)-L-leucinamide], the IC50 was 2.56 µM. Regarding `CCC[C@H](N)C(=O)N[C@H]1CC[C@@H]2CN(S(=O)(=O)c3cccc(C(F)(F)F)c3)C[C@@H]21` [Example 424, N^1-((3aR,4S,6aS)-2-{[3-(trifluoromethyl)phenyl]sulfonyl}octahydrocyclopenta[c]pyrrol-4-yl)-L-norvalinamide], the IC50 turned out to be 3.11 µM. Regarding `CCC[C@H](N)C(=O)N[C@@H]1CC[C@H]2CN(S(=O)(=O)c3cccc(C(F)(F)F)c3)C[C@H]21` [Example 425, N^1-((3aS,4R,6aR)-2-{[3-(trifluoromethyl)phenyl]sulfonyl}octahydrocyclopenta[c]pyrrol-4-yl)-L-norvalinamide], the IC50 was 3.21 µM. In the case of `CN[C@@H](CC1CCCCC1)C(=O)N[C@H]1CC[C@@H]2CN(S(=O)(=O)c3ccc(C(F)(F)F)cc3)C[C@@H]21` [Example 427, 3-cyclohexyl-N^2-methyl-N^1-((3aR,4S,6aS)-2-{[4-(trifluoromethyl)phenyl]sulfonyl}octahydrocyclopenta[c]pyrrol-4-yl)-L-alaninamide] it was 6.45 µM; in that of `CC(C)(C)C[C@H](N)C(=O)N[C@H]1CC[C@@H]2CN(S(=O)(=O)c3cc(C(F)(F)F)ccc3Cl)C[C@@H]21` [Example 428, N^1-((3aR,4S,6aS)-2-{[2-chloro-5-(trifluoromethyl)phenyl]sulfonyl}octahydrocyclopenta[c]pyrrol-4-yl)-4-methyl-L-leucinamide], 2.31 µM.

`CC(C)(C)C[C@H](N)C(=O)N[C@H]1CC[C@@H]2CN(S(=O)(=O)c3ccc(C(F)(F)F)cc3Cl)C[C@@H]21` [Example 429, N^1-((3aR,4S,6aS)-2-{[2-chloro-4-(trifluoromethyl)phenyl]sulfonyl}octahydrocyclopenta[c]pyrrol-4-yl)-4-methyl-L-leucinamide]: the IC50 was determined as 0.96 µM.

Turning to `CN[C@@H](CC(C)(C)C)C(=O)N[C@H]1CC[C@@H]2CN(S(=O)(=O)c3ccc(C(F)(F)F)cc3Cl)C[C@@H]21` [Example 431, N^1-((3aR,4S,6aS)-2-{[2-chloro-4-(trifluoromethyl)phenyl]sulfonyl}octahydrocyclopenta[c]pyrrol-4-yl)-N^2,4-dimethyl-L-leucinamide], the IC50 was determined as 0.58 µM. In the case of `CN[C@@H](CC(C)(C)C)C(=O)N(C1CC1)[C@H]1CC[C@@H]2CN(S(=O)(=O)c3ccc(C(F)(F)F)cc3)C[C@@H]21` [Example 433, N^1-cyclopropyl-N^2,4-dimethyl-N^1-((3aR,4S,6aS)-2-{[4-(trifluoromethyl)phenyl]sulfonyl}octahydrocyclopenta[c]pyrrol-4-yl)-L-leucinamide] it was 1.26 µM; in that of `CCN(C(=O)[C@H](CC(C)(C)C)NC)[C@H]1CC[C@@H]2CN(S(=O)(=O)c3ccc(C(F)(F)F)cc3)C[C@@H]21` [Example 434, N^1-ethyl-N^2,4-dimethyl-N^1-((3aR,4S,6aS)-2-{[4-(trifluoromethyl)phenyl]sulfonyl}octahydrocyclopenta[c]pyrrol-4-yl)-L-leucinamide], 2.7 µM. For `CCCN(C(=O)[C@H](CC(C)(C)C)NC)[C@H]1CC[C@@H]2CN(S(=O)(=O)c3ccc(C(F)(F)F)cc3)C[C@@H]21` [Example 435, N^2,4-dimethyl-N^1-propyl-N^1-((3aR,4S,6aS)-2-{[4-(trifluoromethyl)phenyl]sulfonyl}octahydrocyclopenta[c]pyrrol-4-yl)-L-leucinamide], the IC50 stood at 2.32 µM. As for `CN[C@@H](CC(C)(C)C)C(=O)N(CC1CC1)[C@H]1CC[C@@H]2CN(S(=O)(=O)c3ccc(C(F)(F)F)cc3)C[C@@H]21` [Example 436, N^1-(cyclopropylmethyl)-N^2,4-dimethyl-N^1-((3aR,4S,6aS)-2-{[4-(trifluoromethyl)phenyl]sulfonyl}octahydrocyclopenta[c]pyrrol-4-yl)-L-leucinamide], the IC50 was 1.77 µM. In the case of `CN[C@@H](CC(C)(C)C)C(=O)N(C)[C@H]1CC[C@@H]2CN(S(=O)(=O)c3ccc(C(F)(F)F)cc3)C[C@@H]21` [Example 437, N^1,N^2,4-trimethyl-N^1-((3aR,4S,6aS)-2-{[4-(trifluoromethyl)phenyl]sulfonyl}octahydrocyclopenta[c]pyrrol-4-yl)-L-leucinamide] it was 2.43 µM.

`CC(C)(C)C[C@H](N)C(=O)N[C@H]1CC[C@@H]2CN(c3ccc(C(F)(F)F)cn3)C[C@@H]21` [Example 440, 4-methyl-N^1-{(3aR,4S,6aS)-2-[5-(trifluoromethyl)pyridin-2-yl]octahydrocyclopenta[c]pyrrol-4-yl}-L-leucinamide]: the IC50 turned out to be 3.19 µM. `CC(C)(C)C[C@H](N)C(=O)N[C@H]1CC[C@@H]2CN(c3cccc(C(F)(F)F)n3)C[C@@H]21` [Example 441, 4-methyl-N^1-{(3aR,4S,6aS)-2-[6-(trifluoromethyl)pyridin-2-yl]octahydrocyclopenta[c]pyrrol-4-yl}-L-leucinamide]: the IC50 worked out at 0.37 µM. For `CN[C@@H](CC(C)C)C(=O)N[C@@H]1CC[C@H]2CN(S(=O)(=O)c3cccc(F)c3)C[C@H]21` [Example 443, N^1-{(3aS,4R,6aR)-2-[(3-fluorophenyl)sulfonyl]octahydrocyclopenta[c]pyrrol-4-yl}-N^2-methyl-L-leucinamide], the IC50 turned out to be 7.68 µM. In the case of `CN[C@@H](CC(C)C)C(=O)N[C@@H]1CC[C@H]2CN(S(=O)(=O)c3ccc(F)cc3)C[C@H]21` [Example 444, N^1-{(3aS,4R,6aR)-2-[(4-fluorophenyl)sulfonyl]octahydrocyclopenta[c]pyrrol-4-yl}-N^2-methyl-L-leucinamide], the IC50 amounted to 2.11 µM.

As for `CN[C@@H](CC(C)C)C(=O)N[C@@H]1CC[C@H]2CN(S(=O)(=O)c3ccc(F)c(F)c3)C[C@H]21` [Example 445, N^1-{(3aS,4R,6aR)-2-[(3,4-difluorophenyl)sulfonyl]octahydrocyclopenta[c]pyrrol-4-yl}-N^2-methyl-L-leucinamide], the IC50 stood at 7.96 µM. For `CN[C@@H](CC(C)C)C(=O)N[C@@H]1CC[C@H]2CN(S(=O)(=O)c3cc(F)cc(F)c3)C[C@H]21` [Example 446, N^1-{(3aS,4R,6aR)-2-[(3,5-difluorophenyl)sulfonyl]octahydrocyclopenta[c]pyrrol-4-yl}-N^2-methyl-L-leucinamide], the IC50 worked out at 4.96 µM.
